Reference: ChEMBL document CHEMBL3085678, “3-Azatetracyclo[5.2.1.1(5,8).0(1,5)]undecane derivatives: from wild-type inhibitors of the M2 ion channel of influenza A virus to derivatives with potent activity against the V27A mutant” (J Med Chem, 2013)

Tests used:
H3N2 subtype [1] = assay: Antiviral activity against Influenza A virus (A/Hong Kong/7/1987(H3N2)) harboring wild type M2 channel infected in MDCK cells assessed as reduction of cytopathic effect after 72 hrs by MTS assay; format: functional, organism-based
Influenza B virus [2] = assay: Antiviral activity against Influenza B virus (B/Hong Kong/05/1972) harboring wild type M2 channel infected in MDCK cells assessed as reduction of cytopathic effect after 72 hrs by microsocopic analysis; format: functional, cell-based; conditions: B/Hong Kong/05/1972, MDCK
Influenza A virus [3] = assay: Antiviral activity against Influenza A virus (A/Puerto Rico/8/34(H1N1)) harboring M2 channel S31N and V27T mutant infected in MDCK cells assessed as reduction of cytopathic effect after 72 hrs by microsocopic analysis; format: functional, organism-based, A/Puerto Rico/8/1934(H1N1)
Influenza B virus [4] = assay: Antiviral activity against Influenza B virus (B/Hong Kong/05/1972) harboring wild type M2 channel infected in MDCK cells assessed as reduction of cytopathic effect after 72 hrs by MTS assay; format: functional, cell-based; conditions: B/Hong Kong/05/1972, MDCK
Influenza A virus [5] = assay: Antiviral activity against Influenza A virus (A/Puerto Rico/8/34(H1N1)) harboring M2 channel S31N and V27T mutant infected in MDCK cells assessed as reduction of cytopathic effect after 72 hrs by MTS assay; format: functional, organism-based, A/Puerto Rico/8/1934(H1N1)
H3N2 subtype [6] = assay: Antiviral activity against Influenza A virus (A/Hong Kong/7/1987(H3N2)) harboring wild type M2 channel infected in MDCK cells assessed as reduction of cytopathic effect after 72 hrs by microsocopic analysis; format: functional, organism-based
H3N2 subtype [7] = assay: Antiviral activity against Influenza A virus (A/Hong Kong/7/1987(H3N2)) harboring wild type M2 channel infected in MDCK cells assessed as concentration required to 2 log10 reduction of virus yield after 24 hrs by RT-PCR analysis; format: functional

SMILES | EC50 (H3N2 subtype [1]) [µM] | EC50 (Influenza B virus [2]) [µM] | EC50 (Influenza A virus [3]) [µM] | EC50 (Influenza B virus [4]) [µM] | EC50 (Influenza A virus [5]) [µM] | EC50 (H3N2 subtype [6]) [µM] | EC99 (H3N2 subtype [7]) [µM]
CN1CC23CC4(C)CC2(C1)CC4(C)C3 | > 100 | > 100 | > 100 | > 100 | > 100 | > 100 | 
CN1CC23CC4CC2(CC4C3)C1 | > 100 | > 100 | > 100 | > 100 | > 100 | > 100 | 
CCC12CC34CNCC3(C1)CC2(CC)C4 | > 100 | > 100 | > 100 | > 100 | > 100 | > 100 | 
N=C(N)N1CC23CC45CCCCC4(C2)CC3(C1)C5 | > 100 | > 100 | > 100 | > 100 | > 100 | > 100 | 
CC(N)C12CC3CC(CC(C3)C1)C2 (stereo not drawn) [RIMANTADINE] | 0.12 | > 500 | 18 | > 500 | 4.3 | 0.62 | >4
CC12CC34CN(C(=N)N)CC3(C1)CC2(C)C4 | > 100 | > 100 | > 100 | > 100 | > 100 | > 100 | 
C1CCC23CC45CNCC4(CC2(C1)C5)C3 | > 100 | > 100 | > 100 | > 100 | > 100 | > 100 | 
CCC12CC34CN(C(=N)N)CC3(C1)CC2(CC)C4 | > 100 | > 100 | > 100 | > 100 | > 100 | > 100 | 
CC12CC34CNCC3(C1)CC2(C)C4 | > 100 | > 100 | > 100 | > 100 | > 100 | 1.6 | 
N=C(N)N1CC23CC4CC2(CC4C3)C1 | > 50 | > 50 | > 50 | > 50 | > 50 | > 50 | 
C1NCC23CC4CC12CC4C3 | 7.2 | > 100 | > 100 | > 100 | > 100 | 7.9 | 
NC12CC3CC(CC(C3)C1)C2 [AMANTADINE] | 0.82 | > 500 | 34 | > 500 | 38 | 0.84 | 
